The record followed here is ChEMBL document CHEMBL1137193, “Discovery of new chemical leads for prostaglandin D2 receptor antagonists” (Bioorg Med Chem Lett, 2004).

Experiment [1] concerns the target T1, Prostaglandin D2 receptor (Mus musculus, UniProt P70263).
T1 sequence (P70263 whole entry): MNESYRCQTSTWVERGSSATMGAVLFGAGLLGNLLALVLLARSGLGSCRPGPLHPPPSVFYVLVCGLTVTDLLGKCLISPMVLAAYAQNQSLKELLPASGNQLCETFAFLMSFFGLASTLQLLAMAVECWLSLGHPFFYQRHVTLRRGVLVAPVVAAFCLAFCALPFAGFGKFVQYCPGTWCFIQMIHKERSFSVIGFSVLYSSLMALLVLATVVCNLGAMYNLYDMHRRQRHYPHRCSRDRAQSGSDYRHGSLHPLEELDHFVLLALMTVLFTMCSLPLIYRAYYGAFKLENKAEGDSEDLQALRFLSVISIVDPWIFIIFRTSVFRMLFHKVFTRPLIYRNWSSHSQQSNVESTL
In words: Binding affinity for mouse Prostanoid DP receptor.

For experiment [2], the target named is T2, Prostaglandin E2 receptor EP1 subtype (Mus musculus, UniProt P35375).
T2 sequence (P35375 whole entry): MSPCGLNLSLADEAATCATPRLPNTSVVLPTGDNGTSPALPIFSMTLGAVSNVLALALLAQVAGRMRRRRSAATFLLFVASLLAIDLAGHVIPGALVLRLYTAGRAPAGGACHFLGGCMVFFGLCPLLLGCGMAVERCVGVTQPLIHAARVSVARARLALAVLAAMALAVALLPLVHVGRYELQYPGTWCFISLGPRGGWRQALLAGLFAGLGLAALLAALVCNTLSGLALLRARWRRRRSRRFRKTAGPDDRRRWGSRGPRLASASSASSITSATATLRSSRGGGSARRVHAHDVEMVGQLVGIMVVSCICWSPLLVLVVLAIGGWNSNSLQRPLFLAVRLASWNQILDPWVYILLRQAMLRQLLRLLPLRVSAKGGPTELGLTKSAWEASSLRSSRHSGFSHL
In words: Binding affinity for mouse Prostanoid EP1 receptor.

For experiment [3], the target named is T3, Prostaglandin E2 receptor EP3 subtype (Mus musculus, UniProt P30557).
T3 sequence (P30557 whole entry): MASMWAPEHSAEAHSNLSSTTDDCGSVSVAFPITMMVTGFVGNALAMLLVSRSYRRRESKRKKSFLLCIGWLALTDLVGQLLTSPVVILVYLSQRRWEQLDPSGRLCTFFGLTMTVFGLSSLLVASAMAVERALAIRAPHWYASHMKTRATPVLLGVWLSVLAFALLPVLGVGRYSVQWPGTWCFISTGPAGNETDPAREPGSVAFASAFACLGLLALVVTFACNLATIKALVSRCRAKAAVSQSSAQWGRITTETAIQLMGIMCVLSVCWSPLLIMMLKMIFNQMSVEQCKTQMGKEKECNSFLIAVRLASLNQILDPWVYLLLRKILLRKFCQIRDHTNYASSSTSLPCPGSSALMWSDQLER
Put plainly: Binding affinity for mouse Prostanoid EP3 receptor.

Experiment [4] has as its target Prostaglandin E2 receptor EP4 subtype (Mus musculus, UniProt P32240). In words: Binding affinity for mouse Prostanoid EP4 receptor.
Experiment [5] has as its target T1, Prostaglandin D2 receptor. Put plainly: Inhibition of mouse Prostanoid DP receptor.
The target of experiment [6] is Prostaglandin E2 receptor EP2 subtype (Mus musculus, UniProt Q62053). In words: Binding affinity for mouse Prostanoid EP2 receptor.
Prostaglandin E2 receptor EP2 subtype, sequence (Q62053 whole entry): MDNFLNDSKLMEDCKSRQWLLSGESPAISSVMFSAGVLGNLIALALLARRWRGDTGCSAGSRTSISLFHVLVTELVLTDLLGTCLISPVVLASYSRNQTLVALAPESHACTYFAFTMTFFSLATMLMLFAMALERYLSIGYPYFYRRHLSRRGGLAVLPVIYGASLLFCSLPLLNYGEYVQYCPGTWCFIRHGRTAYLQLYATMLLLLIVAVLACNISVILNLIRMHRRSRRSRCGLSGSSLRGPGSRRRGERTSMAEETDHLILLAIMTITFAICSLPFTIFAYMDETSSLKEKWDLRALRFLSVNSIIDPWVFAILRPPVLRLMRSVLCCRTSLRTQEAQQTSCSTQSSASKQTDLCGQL

Prostaglandin E2 receptor EP4 subtype, sequence (P32240 whole entry): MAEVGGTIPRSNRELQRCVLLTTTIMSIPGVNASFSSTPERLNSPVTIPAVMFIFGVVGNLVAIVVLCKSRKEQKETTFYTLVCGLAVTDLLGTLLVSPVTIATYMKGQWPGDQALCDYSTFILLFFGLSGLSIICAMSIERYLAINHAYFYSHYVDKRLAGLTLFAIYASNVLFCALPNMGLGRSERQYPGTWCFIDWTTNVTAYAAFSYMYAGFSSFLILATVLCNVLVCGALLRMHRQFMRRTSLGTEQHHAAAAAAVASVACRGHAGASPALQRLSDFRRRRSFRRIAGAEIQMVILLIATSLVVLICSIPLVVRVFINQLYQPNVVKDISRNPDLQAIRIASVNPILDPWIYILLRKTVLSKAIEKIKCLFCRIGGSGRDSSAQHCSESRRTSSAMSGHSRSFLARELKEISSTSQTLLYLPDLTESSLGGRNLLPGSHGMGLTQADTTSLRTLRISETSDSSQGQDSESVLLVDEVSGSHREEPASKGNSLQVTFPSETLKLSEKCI

By Ki is commonly meant the equilibrium dissociation constant of an inhibitor or competing ligand from its target. Low values mean higher affinity, high ones lower affinity. One may read the IC50 as the concentration that gives 50% inhibition. In the case of `CCCCOc1ccc(C(=O)n2c(C)c(CC(=O)O)c3cc(OC)ccc32)cc1`, the Ki in experiment [1] was 0.27 µM; in experiment [2], > 10 µM; in experiment [3] it was > 10 µM; in experiment [4], > 10 µM; in experiment [6], 4.7 µM. The molecule also yielded an IC50 in experiment [5] of 1.6 µM.

As for `CCCCOc1ccc(C(=O)n2c(C)c(CCCC(=O)O)c3cc(OC)ccc32)cc1`, the Ki in experiment [1] was 0.19 µM; in experiment [2], > 10 µM; in experiment [3] it was 2.4 µM; in experiment [4], 1.5 µM; in experiment [6], 2.7 µM. In experiment [5], this molecule displayed an IC50 of 0.91 µM.

Regarding `CCCCOc1ccc(C(=O)n2c(C)c(CCC(=O)O)c3cc(OC)ccc32)cc1`, the Ki in experiment [1] was 0.28 µM; in experiment [2] it was > 10 µM; in experiment [3], > 10 µM; in experiment [4], 3 µM; in experiment [6] it was 5.7 µM. Also, half-maximal inhibition in experiment [5] (IC50) was put at 1.5 µM.

As for `CCCCOc1ccc(C(=O)n2c(C)c(CC(=O)O)c3ccccc32)cc1`, the Ki was 0.11 µM in experiment [1]; 5.2 µM in experiment [2]; > 10 µM in experiment [3]; > 10 µM in experiment [4]; 2.1 µM in experiment [6]. In addition, the IC50 in experiment [5] was found to be 3.9 µM.

As for `CCCCOc1ccc(C(=O)n2c(CC)c(CC(=O)O)c3cc(OC)ccc32)cc1`, the Ki in experiment [1] was 1.5 µM; in experiment [2], 3.8 µM; in experiment [3], > 10 µM; in experiment [4] it was > 10 µM; in experiment [6] it was 2.9 µM.

In the case of `CCCCOc1cccc(C(=O)n2c(C)c(CC(=O)O)c3cc(OC)ccc32)c1`, the Ki in experiment [1] is 0.41 µM; in experiment [2], > 10 µM; in experiment [3], > 10 µM; in experiment [4], > 10 µM; in experiment [6], 1.7 µM. This molecule also showed an IC50 in experiment [5] of 2.5 µM.

Consider `CCCCOc1ccc(C(=O)n2c(C)c(CCCCC(=O)O)c3cc(OC)ccc32)cc1`, for which the Ki in experiment [1] is 0.4 µM; in experiment [2], > 10 µM; in experiment [3] it was > 10 µM; in experiment [4], 4.2 µM; in experiment [6], 5.2 µM. The same molecule returned an IC50 in experiment [5] of 4.5 µM.

`CCCCOc1ccc(C(=O)n2c(C)c(C(=O)O)c3cc(OC)ccc32)cc1`: the Ki in experiment [1] was 0.94 µM; in experiment [2], > 10 µM; in experiment [3], > 10 µM; in experiment [4], > 10 µM; in experiment [6] it was > 10 µM. This molecule showed a half-maximal inhibitory concentration (IC50) in experiment [5] of 4 µM.

For the molecule `CCCCOc1ccc(C(=O)n2c(C)c(CC(=O)O)c3cc(O)ccc32)cc1`, the Ki in experiment [1] was 1.9 µM; in experiment [2] it was > 10 µM; in experiment [3], > 10 µM; in experiment [4], > 10 µM; in experiment [6], 3.3 µM. Besides, the IC50 in experiment [5] is > 10 µM.

For `CCCCOc1ccc(C(=O)n2cc(CC(=O)O)c3cc(OC)ccc32)cc1`, the Ki in experiment [1] is 2.2 µM; in experiment [2], > 10 µM; in experiment [3], > 10 µM; in experiment [4] it was > 10 µM; in experiment [6] it was 8.9 µM.

With `CCCCOc1ccccc1C(=O)n1c(C)c(CC(=O)O)c2cc(OC)ccc21`, the Ki in experiment [1] was > 10 µM; in experiment [2], 6.5 µM; in experiment [3], > 10 µM; in experiment [4], > 10 µM; in experiment [6], > 10 µM.

Consider `CCCCOc1ccc(C(=O)n2c(C)c(CC(=O)O)c3cc(C)ccc32)cc1`, for which the Ki in experiment [1] is 0.15 µM; in experiment [2], 5 µM; in experiment [3], > 10 µM; in experiment [4] it was 2.2 µM; in experiment [6], 1.7 µM. The molecule also returned an IC50 in experiment [5] of 2.9 µM.

Regarding `COc1ccc2c(c1)c(CC(=O)O)c(C)n2C(=O)c1ccc(Cl)cc1` [INDOMETHACIN], the Ki in experiment [1], in experiment [2], in experiment [3], in experiment [4] and in experiment [6] was > 10 µM each time. In addition, the IC50 in experiment [5] is > 10 µM.
